The structures appear in SMILES notation.

Regarding `CCOC(=O)c1cn(C2CC2)c2nc(N3CCC(NC)C3)c(F)cc2c1=O` (configuration not stated), the melting point lay within 164 to 166 °C.

`NC(=O)N1CCC(O[N+](=O)[O-])CC1`: the melting point fell in the range of 110 to 111 °C.

`O=C(O)Cc1nc(-c2ccc(F)cc2)oc1-c1cccs1` came in with a melting point of 208 to 209 °C.

Turning to `Cc1ccc(S(=O)(=O)NP(N)(N)=O)cc1`, the melting point is 114 to 118 °C.

`CC(N=Cc1ccc(O)cc1)C1CCCCC1` (single isomer, unassigned; (+)) had a melting point of 130 to 132 °C.

Consider `Cc1oc2c(C)c(Cc3ccccc3)c(C3CC(=O)NC(=O)C3)cc2c1C`, for which the melting point amounted to 138 °C.

In the case of `CCCCc1nc(O)cc(CC(=O)OC)n1`, the melting point fell in the range of 83 to 85 °C.

On to `CCCCOc1ccc(S(=O)(=O)C2(C(=O)NO)CCN(CC)CC2)cc1`, for which the melting point turned out to be 98 °C.

Compound `ON=Cc1ccc(-c2ccc(O)cc2)cc1` returned a melting point of 207 to 210 °C.

In turn, `N#Cc1ccc(N2CCC(c3ccccc3)CC2)cc1` showed a melting point of 167 to 169 °C.

`CC(=O)NC[C@H]1CN(c2cc(F)c(C3CCN(C(=O)COCc4ccccc4)CC3)c(F)c2)C(=O)O1` registered a melting point of 169 to 171 °C.

On to `Cn1nnc(-c2cc3c(Oc4ccc(Cl)cc4)cncc3s2)n1`, for which the melting point was 131 to 133 °C.

As for `O=C1Nc2cccnc2N(C(=O)N2CCCC(CCN3CCCC3)C2)c2cc(Cl)ccc21` (configuration not stated), the melting point is 136 to 139 °C.

Consider `O=C1NCN2c3ccc(Cl)cc3[C@H]3CCN4CCC[C@H]1[C@H]4[C@H]32` (racemic), for which the melting point was more than 250 °C.

The compound `CC1(C)OC2OC(C3NC(=O)CC3O)C(O)C2O1` (configuration not stated) came in with a melting point of 263 to 265 °C.

With `OCC1OC(n2c(Cl)nc3cc(Cl)c(Br)cc32)C(O)C1O` (configuration not stated), the melting point lay in the range of 158 to 159 °C.

With `COc1ccc(-c2cc(=S)n(Cc3ccccc3)nc2-c2ccc(OC)cc2)cc1`, the melting point lay in the range of 135 to 149 °C.

Turning to `CC(=O)SCC(Cc1ccccc1)C(=O)Nc1cccc(C(=O)OCCOc2ccccc2)c1` (configuration not stated), the melting point was in the range of 90 to 92 °C.

`C1=NCc2cncn2-c2ccccc21` showed a melting point of 150 to 151 °C.

Compound `CC(=CC#N)c1cccc2cc[nH]c12` yielded a melting point of 88 to 90 °C.

In turn, `CCN(CC)c1ccc(S(=O)(=O)N2CCCCC2=O)cc1` registered a melting point of 118 to 120 °C.

`COc1ccc2[nH]c(C(=NO)c3ccccc3)cc2c1` returned a melting point of 150 to 152 °C.

`CCOC1=NC(OC)=NS(=O)(=O)N1C(C)C` gave a melting point of 81 to 85 °C.

For the compound `CNS(=O)(=O)c1cc(C2(O)CCC(=O)N2C)ccc1Cl` (configuration not stated), the melting point fell in the range of 147 to 150 °C.

Turning to `CC(C)(CC(C)(Sc1cc(C(C)(C)C)c(O)c(C(C)(C)C)c1)Sc1cc(C(C)(C)C)c(O)c(C(C)(C)C)c1)Sc1cc(C(C)(C)C)c(O)c(C(C)(C)C)c1`, the melting point lay within 93 to 115 °C.

`CN(C)CCNC(=O)Cc1ccc(NC(=O)OCc2ccccc2)cc1`: the melting point was in the range of 126 to 127 °C.

The compound `O=C(C(=Cc1ccccc1)c1ccccc1)c1ccc(O)cc1` returned a melting point of 186 to 190 °C.

Take `CONC(=O)Nc1ccc(-c2nc3n(Cc4c(F)cccc4F)cc(C(=O)OC(C)C)c(=O)n3c2CN(C)Cc2ccccc2)cc1`: the melting point lay in the range of 156 to 158 °C.

For the compound `CC(C)(C)OC(=O)C12CC3CC(C1)CC(C(=O)OC(C)(C)C)(C3)C2`, the melting point lay within 65 to 66 °C.

For `CC(C)(C)OC(=O)N1CC=C(c2ncccc2N)CC1`, the melting point lay within 104 to 105 °C.

`COC(=O)[C@@H]1NC(=O)[C@@H]1NC(=O)COc1ccccc1` (relative stereo) showed a melting point of 140 to 141 °C.

In turn, `CCN1C(=O)CCCc2ccc(Nc3ncc(Cl)c(Nc4c(C)cccc4C(=O)NC)n3)cc21` had a melting point of 210 to 212 °C.

Compound `Cc1ccc(-n2c3ccccc3c3cc(C(C#N)=C(C#N)C#N)ccc32)cc1` returned a melting point of 233 to 234 °C.

With `Cc1nn(C)c2nc3ccccc3c(Cl)c12`, the melting point fell in the range of 127 to 129 °C.

Compound `CCOC(=O)C(C1c2ccccc2C=Cc2ccccc21)[N+](=O)[O-]` (configuration not stated) showed a melting point of 101 to 103 °C.

Take `CCS(=O)c1nc(-c2ccccc2)c(-c2ccccc2)o1` (configuration not stated): the melting point was in the range of 133 to 134 °C.

As for `CCc1ccc2c(c1)OC1(O)c3cccc(N)c3C(=O)C21O` (configuration not stated), the melting point fell in the range of 200 to 203 °C.

`CCNC(=O)[C@H](C)C[C@H](O)[C@H](CC1CCCCC1)NC(=O)OC(C)(C)C`: the melting point lay in the range of 126 to 127 °C.

Regarding `O=C(Nc1ccc(-n2nc(C(F)(F)F)cc2C(F)(F)F)cc1)c1ccno1`, the melting point lay in the range of 202 to 204 °C.

The compound `CCCCCCCCCCCCCCCCCC(=O)N1CCN(c2cc(N3CCCC3)nc(N3CCCC3)n2)CC1` displayed a melting point of 102 to 104 °C.

In turn, `CCCn1c(-c2ccc(O)cc2)cnc1SC` had a melting point of 157 °C.

Turning to `CCc1c(Cc2cc(OC)c(OC)c(OC)c2)[nH]c(=O)c(CC(C)C)[n+]1[O-]`, the melting point was 126 to 127 °C.

Take `O=C1NC2(CCCCC2)c2ccccc21`: the melting point fell in the range of 232 to 234 °C.

The compound `COc1ccc(C(=O)C2=C(O)C(=O)N(c3nnc(C)s3)C2c2cccc(C(=O)O)c2)cc1` (configuration not stated) came in with a melting point of 281 °C.

The compound `Cc1ccccc1-c1cc(=O)c2ccccc2o1` had a melting point of 45.5 to 47.5 °C.

As to `Cn1c(=O)[nH]c(=O)c2c1ncn2CC1OCCO1`, the melting point lay in the range of 276 to 278 °C.

As for `CCCc1c(OCCCOc2cccc3c2CCCC3)ccc2c1OC(CCC(O)CO)(CCC(O)CO)CC2=O` (configuration not stated), the melting point was in the range of 113 to 115 °C.

On to `O=C1c2ccccc2C(=O)N1CCSc1ccc(O)cc1`, for which the melting point lay in the range of 124 to 125 °C.

Turning to `CC(C)(C)OC(=O)N[C@@H](Cc1c[nH]c2ccccc12)c1nc2c(C(F)(F)F)cccc2c(O)c1C(=O)Nc1nccs1`, the melting point is 270 °C.

For the compound `CSN(C)C(=O)Nc1ccc(Cl)c(Cl)c1`, the melting point turned out to be 93 °C.

For `O=C(O)CCc1c(C(=O)O)[nH]c2cc(I)cc(I)c12`, the melting point was in the range of 280 to 282 °C.

Regarding `BrCc1ccc2ccccc2c1CBr`, the melting point fell in the range of 149 to 150 °C.

For the compound `O=S(=O)(c1cccc2ccccc12)c1n[nH]c2ccc(OCC3CCNCC3)cc12`, the melting point lay in the range of 175 to 177 °C.

Consider `O=C(NCCCCC(NS(=O)(=O)c1ccc2oc3ccccc3c2c1)C(=O)O)OCc1ccccc1` (configuration not stated), for which the melting point fell in the range of 133 to 135 °C.

Consider `CC(C)(C)C(=O)OCCn1nc(-c2cc(C(C)(C)C)c(O)c(C(C)(C)C)c2)c2cccnc21`, for which the melting point fell in the range of 85 to 87 °C.

`Nc1ccnc(-c2nc(=O)c3ccccc3s2)c1` gave a melting point of 208 °C.

Compound `CC(=O)c1ccc(CCNS(=O)(=O)c2ccc(Br)cc2)cc1` gave a melting point of 130 to 131 °C.

`COC(=O)c1ccc(OC)c2c1OCCO2`: the melting point came to 84 °C.

As to `Cc1ccccc1N1CCN(CC(O)c2ccc(N3CCCNC3=O)cc2)CC1` (configuration not stated), the melting point was in the range of 234 to 235 °C.

In turn, `O=C1OCCC1C(=O)c1ccc(F)cc1[N+](=O)[O-]` (configuration not stated) yielded a melting point of 87 to 89 °C.

For `Cc1cnc(C2=NC(C)(C(C)C)C(=O)N2)c(C(O)c2ccc(C)s2)c1` (configuration not stated), the melting point lay in the range of 147 to 148 °C.

Compound `Cc1ccc(N=C(N(Cc2ccccc2)C2CCCCC2)N(Cc2ccccc2)C2CCCCC2)cc1` gave a melting point of 128 to 130 °C.

The compound `CCOC(=O)n1nc(-c2cc(C(C)(C)C)c(O)c(C(C)(C)C)c2)c2cccnc21` showed a melting point of 161 to 163 °C.

In turn, `O=C(Nc1ccc(Cl)c(C(F)(F)F)c1)Nc1ccc(-c2ccc(C(F)(F)F)cc2)cc1-c1nnn[nH]1` registered a melting point of 226 to 228 °C.

`CCOc1ccc(N(C)CCCN)cc1` yielded a melting point of 97 to 98 °C.

`CC(C)(C)NC(=O)N1CCN(c2ccc3ncc(Br)n3n2)CC1` yielded a melting point of 199 to 200 °C.

In turn, `NC(=O)C[C@H](NC(=O)CCc1ccc(OCc2ccccc2)cc1OCc1ccccc1)C(=O)N1CCN(Cc2ccccc2)CC1` returned a melting point of 112 to 114 °C.

Turning to `Cn1ccc2cc(N3Cc4ccc(OC(F)F)cc4C3=O)ccc21`, the melting point lay in the range of 180 to 182 °C.

In the case of `Cc1cc2ccccn2c1C(=O)C1CCc2nc[nH]c2C1` (configuration not stated), the melting point lay in the range of 260 to 264 °C.

In the case of `CS(=O)(=O)c1ccc(C2=C(c3ccc(F)cc3)CC3(CCC3)C2)cc1`, the melting point lay in the range of 123 to 124 °C.

Regarding `Cc1ccc2c(c1)C(=O)c1nc3ccccc3c(=O)n1-2`, the melting point lay within 283 to 285 °C.

`CC(=O)N1N=C(c2ccncc2)OC1(C)C` displayed a melting point of 117 to 118 °C.

On to `COC(=O)c1ccc(OCCNC(=O)C2Cc3ccccc3N2S(=O)(=O)c2ccc(-c3cccc(C(F)(F)F)c3)cc2)c(C)c1` (configuration not stated), for which the melting point is 68 to 74 °C.

For the compound `OC12CC3CC(CC(C3)C1=C1C3CC4CC(C3)CC1C4)C2`, the melting point is 212 to 213 °C.

The compound `Cc1ncc(C(=O)N(C)Cc2cc(C(F)(F)F)cc(C(F)(F)F)c2)c(-c2ccccc2Br)n1` gave a melting point of 122 °C.

Consider `Cc1ncc(-c2ccc(C(F)(F)F)cc2)c(NC2CCCCC2)n1`, for which the melting point fell in the range of 220 to 225 °C.

In turn, `CCOC(=O)C1=C(COCc2cc(=O)n(C)c(N)n2)NC(C)=C(C(=O)OC)C1c1cccc(Cl)c1Cl` (configuration not stated) gave a melting point of 202 to 205 °C.

The compound `CC(C(=O)O)c1ccc2c(c1)C(=O)Cc1cc(O)ccc1S2` (configuration not stated) had a melting point of 216 to 217 °C.

`CC(C)(CO)COc1ccc(-n2cc(C(=O)O)cn2)cc1C#N` yielded a melting point of 188 to 190 °C.

`O=C1CCC(=O)N1c1ccc(N2CCN(c3ccc(OCC(O)(Cn4cncn4)c4ccc(Cl)cc4Cl)cc3)CC2)cc1` (configuration not stated): the melting point lay within 212 to 216 °C.

Turning to `CCC(C)N1CCC(CNc2ccc(Cl)cc2C(=O)Nc2ccc(C)cn2)CC1` (configuration not stated), the melting point lay in the range of 126 to 128 °C.

With `c1ccc(C(c2ccc3cccnc3c2)n2ccnc2)cc1` (configuration not stated), the melting point came to 111 °C.

As for `c1ccc2c(Nc3ccc4c(c3)CCC4)ncc(Sc3ccncc3)c2c1`, the melting point fell in the range of 100 to 103 °C.

Compound `CCOC(=O)C1=C(NC(C)=O)Oc2cc(O)ccc2C1c1cnc2ccccc2c1` (configuration not stated) yielded a melting point of 248 to 251 °C.

The compound `CCOC(=O)C(CC)Sc1nc2c(c(=O)n(CCOC)c(=O)n2C)n1Cc1cccc(Br)c1` (configuration not stated) showed a melting point of 58 °C.

The compound `COc1ccc(CCCNC(=O)N(C)O)cc1OC` returned a melting point of 99 to 100 °C.

Turning to `O=c1[nH]c2ccc(O)cc2n1CCN1CCN(c2cccc(C(F)(F)F)c2)CC1`, the melting point was more than 250 °C.

The record behind these values is a melting point compilation (Tetko et al.; mined from patent text by program, amines drawn as free bases though some values may be those of a salt).
